Our source for the IC50 values is patent US7160901B2, “Substituted indolinones, preparation thereof and their use as pharmaceutical compositions” (Boehringer Ingelheim Pharma GmbH & Co. KG, priority 2000, dated 2007).

This experiment relates to Leiomyosarcoma tumour cell line SK-UT-1B. In words: Test 1: inhibition of the proliferation of cultivated human tumour cells (14C-thymidine incorporation), SK-UT-1B. Format: cell-based. The conditions noted are these: Homo sapiens, Skut1B; in vitro Test 1; SK-UT-1B cells; 48 hours' incubation, then 14C-thymidine for a further 24 hours; IC50 of inhibition of incorporated 14C-thymidine; read-out: Inhibition of SKUT-1B proliferation. From the text:
Inhibition of the Proliferation of Cultivated Human Tumour Cells
Cells of the Leiomyosarcoma tumour cell line SK-UT-1B or non-small-cell lung tumour cell line NCI-H460 (obtained from the American Type Culture Collection (ATCC)) were cultivated in Minimum Essential Medium with non-essential amino acids (Gibco), supplemented with sodium pyruvate (1 mMol), glutamine (2 mMol) and 10% foetal calf serum (Gibco) or RPMI1640 Medium (Gibco) and 10% foetal calf serum (Gibco) and harvested in the logarithmic growth phase. Then the SK-UT-1B cells were placed in Cytostar® multi-well plates (Amersham) at a density of 4000 cells per well or 3000 cells per well for NCI-H460 cells and incubated overnight in an incubator. Various concentrations of the compounds (dissolved in DMSO; final concentration: 0.1%) were added to the cells. After 48 hours' incubation, ^14C-thymidine (Amersham) was added to each well and incubation was continued for a further 24 hours. The quantity of ^14C-thymidine which was incorporated into the tumour cells in the presence of the inhibitor and which represents the number of cells in the S phase was measured in a Wallace 1450 Microbeta Liquid Scintillation Counter. IC50 values for the inhibition of the proliferation (=inhibition of incorporated ^14C-thymidine) were calculated, correcting for the background radiation. All the measurements were done twice.
The following Table contains the results obtained with the in vitro Test 1 (++ denotes <0.01 μM, + denotes 0.01–1.0 μM): […]
A general note: Incorporation of labelled thymidine or its analogues reports DNA synthesis.

SMILES strings stand for the structures.

Turning to `CN(C(=O)CN1CCCCC1)c1ccc(N/C(=C2\C(=O)Nc3ccc(NS(=O)(=O)c4ccccc4)cc32)c2ccccc2)cc1` [Example 56, (Z)-3-[1-(4-(N-methyl-N-piperidinomethylcarbonyl-amino)-phenylamino)-1-phenyl-methylidene]-5-phenylsulphonylamino-2-indolinone], the IC50 was less than 10 nM.
As to `CC1CCCC(C)N1Cc1ccc(N/C(=C2\C(=O)Nc3ccc(NS(=O)(=O)c4cccc([N+](=O)[O-])c4)cc32)c2ccccc2)cc1` (stereo not drawn) [Example 66, (Z)-3-{1-[4-((2,6-dimethylpiperidino)-methyl)-phenylamino]-1-phenyl-methylidene}-5-(3-nitrophenylsulphonylamino)-2-indolinone], the IC50 was less than 10 nM.
For the molecule `O=C1Nc2ccc(NS(=O)(=O)c3ccccc3)cc2/C1=C(/Nc1ccc(Cl)cc1)c1ccccc1` [Example 23, (Z)-3-[1-(4-chlorophenylamino)-1-phenyl-methylidene]-5-phenylsulphonylamino-2-indolinone], the IC50 was 10 to 1000 nM.
Regarding `Cc1noc(C)c1S(=O)(=O)Nc1ccc2c(c1)/C(=C(/Nc1ccc(CN3CCCCC3)cc1)c1ccccc1)C(=O)N2` [Example 117, (Z)-3-{1-[4-(piperidinomethyl)-phenylamino]-1-phenyl-methylidene}-5-(3,5-dimethylisoxazol-4-ylsulphonylamino)-2-indolinone], the IC50 is 10 to 1000 nM.
In the case of `CCS(=O)(=O)Nc1ccc2c(c1)/C(=C(/Nc1ccc(CCN(C)C)cc1)c1ccccc1)C(=O)N2` [Example 72, (Z)-3-{1-[4-(2-dimethylamino-ethyl)-phenylamino]-1-phenyl-methylidene}-5-ethylsulphonylamino-2-indolinone] it was 10 to 1000 nM; in that of `CC(=O)N(CC(=O)N(C)C)c1ccc(N/C(=C2\C(=O)Nc3ccc(NS(=O)(=O)c4ccccc4)cc32)c2ccccc2)cc1` [Example 164, (Z)-3-{1-[4-(N-dimethylaminocarbonylmethyl-N-acetyl-amino)-phenylamino]-1-phenyl-methylidene}-5-phenylsulphonylamino-2-indolinone], 10 to 1000 nM.
As to `CC(=O)N(C)c1ccc(N/C(=C2\C(=O)Nc3ccc(NS(=O)(=O)c4ccccc4)cc32)c2ccccc2)cc1` [Example 20, (Z)-3-{1-[4-(N-methyl-N-acetyl-amino)-phenylamino]-1-phenyl-methylidene}-5-phenylsulphonylamino-2-indolinone], the IC50 was in the range of 10 to 1000 nM.
Consider `O=C1Nc2ccc(NS(=O)(=O)c3cccnc3)cc2/C1=C(/Nc1ccc(CN2CCCC2)cc1)c1ccccc1` [Example 80, (Z)-3-{1-[4-(pyrrolidin-1-ylmethyl)-phenylamino]-1-phenyl-methylidene}-5-(pyridin-3-ylsulphonylamino)-2-indolinone], for which the IC50 was less than 10 nM.
In the case of `O=C1Nc2ccc(NS(=O)(=O)c3ccccc3)cc2/C1=C(/Nc1ccc(CN2CCCC2)cc1)c1ccccc1` [Example 12, (Z)-3-{1-[4-(pyrrolidin-1-ylmethyl)-phenylamino]-1-phenyl-methylidene}-5-phenylsulphonylamino-2-indolinone], the IC50 lay within 10 to 1000 nM.
As for `CN(C)CCN(c1ccc(N/C(=C2\C(=O)Nc3ccc(NS(=O)(=O)c4ccccc4)cc32)c2ccccc2)cc1)S(=O)(=O)c1ccccc1` [Example 4, (Z)-3-{1-[4-(N-(2-dimethylaminoethyl)-N-phenylsulphonyl-amino)-phenylamino)-1-phenyl-methylidene}-5-phenylsulphonylamino-2-indolinone], the IC50 is less than 10 nM.
`CCS(=O)(=O)Nc1ccc2c(c1)/C(=C(/Nc1ccc(CN3CCCC3)cc1)c1ccccc1)C(=O)N2` [Example 144, (Z)-3-{1-[4-(pyrrolidin-1-ylmethyl)-phenylamino]-1-phenyl-methylidene}-5-ethylsulphonylamino-2-indolinone]: the IC50 was in the range of 10 to 1000 nM.
With `O=C1Nc2ccc(NS(=O)(=O)C3CC3)cc2/C1=C(/Nc1ccc(CN2CCCCC2)cc1)c1ccccc1` [Example 120, (Z)-3-{1-[4-(piperidinomethyl)-phenylamino]-1-phenyl-methylidene}-5-cyclopropylsulphonylamino-2-indolinone], the IC50 was less than 10 nM.
In the case of `CCS(=O)(=O)Nc1ccc2c(c1)/C(=C(/Nc1ccc(CN3CCCCC3)cc1)c1ccccc1)C(=O)N2` [Example 99, (Z)-3-{1-[4-(piperidinomethyl)-phenylamino]-1-phenyl-methylidene}-5-ethylsulphonylamino-2-indolinone], the IC50 was less than 10 nM.
`CS(=O)(=O)Nc1ccc2c(c1)/C(=C(/Nc1ccc(CN3CCCC3)cc1)c1ccccc1)C(=O)N2` [Example 145, (Z)-3-{1-[4-(pyrrolidin-1-ylmethyl)-phenylamino]-1-phenyl-methylidene}-5-methylsulphonylamino-2-indolinone]: the IC50 was 10 to 1000 nM.
In the case of `CCC(=O)NCCN(C(=O)CC)c1ccc(N/C(=C2\C(=O)Nc3ccc(NS(=O)(=O)c4ccccc4)cc32)c2ccccc2)cc1` [Example 31, (Z)-3-{1-[4-(N-(2-propionylamino-ethyl)-N-propionyl-amino)-phenylamino]-1-phenyl-methylidene}-5-phenylsulphonylamino-2-indolinone], the IC50 is less than 10 nM.
In the case of `O=C1Nc2ccc(NS(=O)(=O)c3ccccc3)cc2/C1=C(/Nc1ccccc1)c1ccccc1` [Example 22, (Z)-3-(1-phenylamino-1-phenyl-methylidene)-5-phenylsulphonylamino-2-indolinone], the IC50 was 10 to 1000 nM.
For `O=C1Nc2ccc(NS(=O)(=O)c3cccc([N+](=O)[O-])c3)cc2/C1=C(/Nc1ccc(CN2CCCCC2)cc1)c1ccccc1` [Example 112, (Z)-3-{1-[4-(piperidinomethyl)-phenylamino]-1-phenyl-methylidene}-5-(3-nitrophenylsulphonylamino)-2-indolinone], the IC50 was less than 10 nM.
On to `CCCS(=O)(=O)Nc1ccc2c(c1)/C(=C(/Nc1ccc(CN3CCCC3)cc1)c1ccccc1)C(=O)N2` [Example 143, (Z)-3-{1-[4-(pyrrolidin-1-ylmethyl)-phenylamino]-1-phenyl-methylidene}-5-propylsulphonylamino-2-indolinone], for which the IC50 was 10 to 1000 nM.
For `CS(=O)(=O)N(CCN)c1ccc(N/C(=C2\C(=O)Nc3ccc(NS(=O)(=O)c4ccccc4)cc32)c2ccccc2)cc1` [Example 2, (Z)-3-{1-[4-(N-(2-aminoethyl)-N-methylsulphonyl-amino)-phenylamino]-1-phenyl-methylidene}-5-phenylsulphonylamino-2-indolinone], the IC50 fell in the range of 10 to 1000 nM.
Next, `O=C1Nc2ccc(NS(=O)(=O)c3ccccc3)cc2/C1=C(/Nc1ccc(C(=O)NCc2ccccc2)cc1)c1ccccc1` [Example 158, (Z)-3-{1-[4-(benzylaminocarbonyl)-phenylamino]-1-phenyl-methylidene}-5-phenylsulphonylamino-2-indolinone]: 10 to 1000 nM; `CN(c1ccc(N/C(=C2\C(=O)Nc3ccc(NS(=O)(=O)c4ccccc4)cc32)c2ccccc2)cc1)S(C)(=O)=O` [Example 42, (Z)-3-[1-(4-(N-methyl-N-methylsulphonyl-amino)-phenylamino)-1-phenyl-methylidene]-5-phenylsulphonylamino-2-indolinone]: 10 to 1000 nM.
